Read-outs that look alike come from different tables or passages of the source. One block for each compound: values may come before it.
Tests used:
[1] = the molecule shown is the open-chain precursor; 21-membered ring
[2] = Dithiocarbamate (DTC) stapling of unprotected peptides: Lys side-chain amine + CS2 (Et3N) gives Lys-NH-C(=S)S-, then intramolecular thia-Michael addition to dehydroalanine (Dha, made beforehand from Cys with 2,5-dibromohexanediamide and HPLC-purified); conditions: the molecule shown is the open-chain precursor, 21-membered ring, ethanol/Et3N/CS2 10:1:1 v/v
circular dichroism = conditions: phosphate buffer (PB); pH 7.2; 20 °C; 10-50 uM
[3] = target: T1, synthetic 24–108MDMX (p53-binding domain) (Homo sapiens, UniProt O15151); assay: SPR-based competition binding assay on 15–29p53-immobilized CM5 chip, MDMX; conditions: 25 °C, MDMX at 100 nM, 10 mM HEPES, 150 mM NaCl, 0.005% P20, pH 7.4, free MDMX quantified on 15–29p53 chip, two replicates, three independent experiments
T1 construct: made in house; host or cells: total chemical synthesis (native chemical ligation of 24-75 thioester with 76-108); no expression host
T1 sequence (O15151 24-108): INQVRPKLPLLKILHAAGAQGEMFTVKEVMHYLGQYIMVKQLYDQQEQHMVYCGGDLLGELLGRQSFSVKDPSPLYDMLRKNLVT
Procedure: (§1) and three independent experiments were performed.
(§2) Fluorescence polarization (FP).
(§3) As an additional positive control, we
(§4) Tecan Infinite M1000 plate reader. […]
(§5) additional incubation for 64 hours.
(§6) Circular Dichroism (CD) Spectroscopy. […]
(§7) from 10-50 μM. […] The spectra were […]
(§8) of each peptide was calculated as reported previously. 12
(§9) Stability in GSH. […] RP-

HCT116 p53-/- cells = assay: Cell viability assay (CCK8), HCT116 p53-/-; format: cell-based, human; conditions: concentrations of up to 50 μM, 8 h serum-free then 64 h with serum
Procedure: (§10) and three independent experiments were performed. […]
as §3
(§11) Tecan Infinite M1000 plate reader.
(§12) additional incubation for 64 hours. […]

HCT116 p53+/+ cells = assay: Cell viability assay (CCK8), HCT116 p53+/+; format: cell-based, human; conditions: concentrations of up to 50 μM, 8 h serum-free then 64 h with serum
Procedure: as §10, §11, §12

[4] = Circular dichroism spectroscopy, helical content; format: physicochemical; conditions: CD, PB pH 7.2, 10-50 μM peptide, 20 °C
Procedure: Circular Dichroism (CD) Spectroscopy.
as §7

HCT116 cells = assay: Cellular uptake by confocal microscopy; format: cell-based, human; conditions: 20 μM peptide N-terminally conjugated to FITC via aminocaproic acid, HCT116 p53+/+ cells, 4 h, fixed, DAPI
Procedure: Although cationicity is not a universal molecular signature of cell-penetrating peptides, it plays a critical role in the ability of stapled peptides to traverse the cell membrane to exert biological activity.[10],[22],[28]
Cellular uptake of DTCPMI. A fluorescent FITC moiety was appended via an aminocaproic acid to the N- […]
and allowed to grow overnight. Cells were then incubated with 20 µM FITC-DTCPMI for 4 h. Cells were washed with Dulbecco's phosphate buffered saline, fixed with 4% (wt/vol) paraformaldehyde, finally incubated by DAPI to stain the cell nucleus. Imaged using an LSM 510 Zeiss Axiovert 200M (v4.0) confocal microscope. Images were analyzed using an LSM image browser. […]
μM) in serum-free media for 8 hours. The cells were lysed (20 mM Tris-HCl pH 8.0, 0.8 % SDS, 1 mM PMSF, 1 U mL-1 benzonase nuclease) and the crude lysates were clarified by brief centrifugation and total protein concentration was determined by using the Pierce BCA protein assay. Aliquots containing 5 μg of total protein were run on 4-12% Bis-Tris polyacrylamide gels (Invitrogen). Proteins were detected by chemiluminescence reagent (Perkin Elmer) using antibodies specific for p53 (Santa Cruz Biotechnology), MDM2 (Santa Cruz Biotechnology), p21 (Merck Millipore), and β-actin (Sigma-Aldrich). […]

cathepsin G = cathepsin G (Homo sapiens, UniProt P08311); conditions: 100 μM peptide, cell culture medium (RPMI 1640), 25 μg/ml cathepsin G, room temperature, RP-HPLC and ESI-MS
Sequence of cathepsin G (P08311 21-255, species assumed): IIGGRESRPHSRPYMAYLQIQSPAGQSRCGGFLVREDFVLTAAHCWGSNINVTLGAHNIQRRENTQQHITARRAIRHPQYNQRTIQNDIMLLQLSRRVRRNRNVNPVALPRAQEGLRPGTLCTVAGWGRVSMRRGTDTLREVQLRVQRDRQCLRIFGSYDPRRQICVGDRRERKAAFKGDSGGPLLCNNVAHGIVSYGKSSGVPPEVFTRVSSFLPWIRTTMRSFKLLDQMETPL
Procedure: as §1, §2, §3, §4, §5, §6, §7, §8, §9

Compound: C=C(NC(=O)[C@H](Cc1c[nH]c2ccccc12)NC(=O)[C@H](Cc1ccc(O)cc1)NC(=O)[C@H](CCC(=O)O)NC(=O)[C@H](C)NC(=O)[C@H](Cc1ccccc1)NC(=O)[C@H](CO)NC(=O)[C@@H](NC(C)=O)[C@@H](C)O)C(=O)N[C@@H](CC(C)C)C(=O)N[C@@H](CC(C)C)C(=O)N[C@@H](CO)C(=O)N[C@@H](CCCCNC(=S)S)C(N)=O [Ac-Thr-Ser-Phe-Ala-Glu-Tyr-Trp-Dha-Leu-Leu-Ser-Lys-NH2]
ring closure, isolated yield [1]: 38%

Compound: C=C(NC(=O)[C@H](CO)NC(=O)[C@H](CC(C)C)NC(=O)[C@H](CC(C)C)NC(=O)[C@H](CCCCNC(=S)S)NC(=O)[C@H](Cc1c[nH]c2ccccc12)NC(=O)[C@H](Cc1ccc(O)cc1)NC(=O)[C@H](CCC(=O)O)NC(=O)[C@H](C)NC(=O)[C@H](Cc1ccccc1)NC(=O)[C@H](CO)NC(=O)[C@@H](NC(C)=O)[C@@H](C)O)C(N)=O [Ac-Thr-Ser-Phe-Ala-Glu-Tyr-Trp-Lys-Leu-Leu-Ser-Dha-NH2]
ring closure, isolated yield [1]: 45%

Compound: C=C(NC(=O)[C@H](Cc1c[nH]c2ccccc12)NC(=O)[C@H](Cc1ccc(O)cc1)NC(=O)[C@H](CCC(N)=O)NC(=O)[C@H](CCCCNC(=S)S)NC(=O)[C@H](Cc1ccccc1)NC(=O)[C@H](CO)NC(=O)[C@@H](NC(C)=O)[C@@H](C)O)C(=O)N[C@@H](CC(C)C)C(=O)N[C@@H](CC(C)C)C(=O)N[C@@H](CO)C(=O)N[C@@H](CCCNC(=N)N)C(N)=O [Ac-Thr-Ser-Phe-Lys-Gln-Tyr-Trp-Dha-Leu-Leu-Ser-Arg-NH2]
ring closure, isolated yield [2]: 46%

Compound: C=C(NC(=O)[C@H](Cc1c[nH]c2ccccc12)NC(=O)[C@H](Cc1ccc(O)cc1)NC(=O)[C@H](CCC(=O)O)NC(=O)[C@H](CCCCNC(=S)S)NC(=O)[C@H](Cc1ccccc1)NC(=O)[C@H](CO)NC(=O)[C@@H](NC(C)=O)[C@@H](C)O)C(=O)N[C@@H](CC(C)C)C(=O)N[C@@H](CC(C)C)C(=O)N[C@@H](CO)C(=O)N1CCC[C@H]1C(N)=O [Ac-Thr-Ser-Phe-Lys-Glu-Tyr-Trp-Dha-Leu-Leu-Ser-Pro-NH2]
ring closure, isolated yield [2]: 42%

Kd [3]: > 500 nM
Compound: CC(=O)N[C@H]1CCCCNC(=S)SC[C@@H](C(=O)N[C@@H](Cc2ccc(O)cc2)C(=O)N[C@@H](Cc2c[nH]c3ccccc23)C(=O)N[C@@H](CC(N)=O)C(=O)N[C@@H](CC(C)C)C(=O)N[C@@H](CC(C)C)C(=O)N[C@@H](CO)C(=O)N2CCC[C@H]2C(N)=O)NC(=O)[C@H](C)NC(=O)[C@H](Cc2ccccc2)NC(=O)[C@H](CO)NC1=O [PMI(1,5)-a]
helicity (circular dichroism): 6.5%

α-Helix (%) [4]: 16.6%
Compound: CC(=O)N[C@H](C(=O)N[C@@H](CO)C(=O)N[C@@H](Cc1ccccc1)C(=O)N[C@@H](CCCCN)C(=O)N[C@@H](CCC(N)=O)C(=O)N[C@@H](Cc1ccc(O)cc1)C(=O)N[C@@H](Cc1c[nH]c2ccccc12)C(=O)N[C@@H](CS)C(=O)N[C@@H](CC(C)C)C(=O)N[C@@H](CC(C)C)C(=O)N[C@@H](CO)C(=O)N[C@@H](CCCNC(=N)N)C(N)=O)[C@@H](C)O [^DTCPMI Ctrl.]
helicity (circular dichroism): 16.6% | anti-proliferative activity against HCT116 p53-/- (HCT116 p53-/- cells): no anti-proliferative activity | anti-proliferative activity against HCT116 p53+/+ (HCT116 p53+/+ cells): no anti-proliferative activity

intracellular localization (confocal microscopy) (HCT116 cells): diffused intracellular localization
Compound: CC(=O)N[C@H](C(=O)N[C@@H](CO)C(=O)N[C@@H](Cc1ccccc1)C(=O)N[C@H]1CCCCNC(=S)SC[C@@H](C(=O)N[C@@H](CC(C)C)C(=O)N[C@@H](CC(C)C)C(=O)N[C@@H](CO)C(=O)N[C@@H](CCCNC(=N)N)C(N)=O)NC(=O)[C@H](Cc2c[nH]c3ccccc23)NC(=O)[C@H](Cc2ccc(O)cc2)NC(=O)[C@H](CCC(N)=O)NC1=O)[C@@H](C)O [^DTCPMI]
helicity (circular dichroism): 62.2%

Compound: Ac-TSFAEYWNLLSP-NH2 [PMI-0]
time to full degradation by cathepsin G (cathepsin G): ≤ 30 min | α-Helix (%) [4]: 9.77%
